The results in this text go back to article PMC4626215, “Esculentin-2CHa-Related Peptides Modulate Islet Cell Function and Improve Glucose Tolerance in Mice with Diet-Induced Obesity and Insulin Resistance” (PLoS ONE, 2015).

Bridges are numbered along the chain shown (N, C = ends). Where no end group is shown, it is not given here.

In data set [1] the test system is BRIN-BD11 cells. The experiment in a line: Membrane potential, FLIPR membrane assay kit. The conditions noted are these: for Membrane potential (AUC, x 10^3 RFU): 1 μM peptide, 5 min, mean ± SEM, n = 8. The data set is classed as cell-based, rat. The protocol: (§1) Effects of esculentin-2CHa (1 μM) and its analogues on membrane potential and [Ca^2+]i in BRIN-BD11 cells over a period of 5 min were assessed using commercially available FLIPR membrane or calcium assay kit (Molecular Devices, USA) as previously described. Data were captured using a Flexstation 3 microplate reader equipped with automatic fluid transfer unit (Molecular Devices, USA).

In data set [2] the test system is BRIN-BD11 rat clonal β-cells. Nature of the data set: In vitro insulin release from BRIN-BD11 cells. It is filed as cell-based. The conditions noted are these: 5.6 mM glucose; for BRIN-BD11 cells (Threshold concentration): minimum concentration producing a significant increase in rate of insulin release, 37°C.
Method: (§2) In vitro insulin-releasing effects of esculentin-2CHa and its analogues were assessed using BRIN-BD11 rat clonal β-cells and mouse islets. In the first set of experiments, BRIN-BD11 cells were incubated with the peptides in the concentration range (1 pM– 3 μM) in Krebs-Ringer bicarbonate buffer containing 5.6 mM glucose for 20 min at 37°C as previously described [15–17]. Insulin-releasing effects were also assessed using buffer supplemented with 1.4 and 16.7mm glucose concentrations and with established modulators of insulin release as previously described [15–17]. In a second set of experiments, islets from NIH Swiss mice, isolated by collagenase digestion [18, 19], were incubated with a range of concentrations of esculentin-2CHa or its analogues (0.1 nM– 1 μM) for 1 h in Krebs-Ringer bicarbonate (KRB) buffer supplemented with 1.4, 5.6 or 16.7 mM glucose. Following test incubations, aliquots of buffer were retrieved and stored at -20°C for measurement of insulin by radioimmunoassay [20].
Data set [3] relates to BRIN-BD11 cells. The experiment in a line: Intracellular calcium ([Ca2+]i), FLIPR calcium assay kit. To be noted: for Intracellular Ca2+ (AUC, x 10^2 RFU): 1 μM peptide, 5 min, mean ± SEM, n = 8. The data set is classed as cell-based, rat. The protocol: as §1
For orientation: Calcium flux is commonly read through the fluorescence of an indicator in the cells.

Data set [4] deals with islets from NIH Swiss mice. The experiment in a line: In vitro insulin release from isolated mouse islets. The data set is classed as cell-based. The conditions noted are these: 16.7 mM glucose; for Stimulation of insulin release from islets, fold of basal: 1 μM, 1 h; for Mouse islets (Threshold concentration): insulin release, 1 h incubation, n = 8.
Method: as §2
Data set [5] deals with BRIN-BD11 cells. The conditions noted are these: 3 μM peptide (highest concentration); mean ± SEM, n = 8. Here is the method: In vitro insulin-releasing effects of esculentin-2CHa and its analogues were assessed using BRIN-BD11 rat clonal β-cells and mouse islets. In the first set of experiments, BRIN-BD11 cells were incubated with the peptides in the concentration range (1 pM– 3 μM) in Krebs-Ringer bicarbonate buffer containing 5.6 mM glucose for 20 min at 37°C as previously described. Insulin-releasing effects were also assessed using buffer supplemented with 1.4 and 16.7mm glucose concentrations and with established modulators of insulin release as previously described. In a second set of experiments, islets from NIH Swiss mice, isolated by collagenase digestion, were incubated with a range of concentrations of esculentin-2CHa or its analogues (0.1 nM– 1 μM) for 1 h in Krebs-Ringer bicarbonate (KRB) buffer supplemented with 1.4, 5.6 or 16.7 mM glucose. Following test incubations, aliquots of buffer were retrieved and stored at -20°C for measurement of insulin by radioimmunoassay. In the experiments with BRIN-BD11 cells, the release of lactate dehydrogenase (LDH) was measured as an indicator of the integrity of the plasma membrane using commercially available CytoTox 96 non-radioactive cytotoxicity assay kit (Promega, Madison, WI, USA) according to the manufacturer’s recommended protocol.

The next data set has as its system high fat fed mice. Nature of the data set: Acute in vivo glucose tolerance and insulin release. The arrangement: species or system mouse. The conditions noted are these: for Plasma glucose (AUC) / Plasma insulin (AUC): ip glucose 18 mmol/kg with peptide 75 nmol/kg, AUC 0-60 min, mean ± SEM, n = 8. The protocol:
Male National Institutes of Health (NIH) Swiss mice (Harlan Ltd, UK) were housed separately in an air-conditioned room (22 ± 2°C) with relative humidity of 51 ± 5% and a 12-hour light: 12-hour dark cycle and maintained on a high fat diet containing 45% fat, 20% protein and 35% carbohydrate (total energy 19.5 kJ/g, Dietex International Ltd, Witham, UK) for 120 days. Mice maintained on standard rodent diet containing 10% fat, 30% protein and 60% carbohydrates (total energy 12.99 kJ/g) were used as controls. Both groups of animals were allowed food and water ad libitum. All animal experiments were carried out in accordance with the UK Animals (Scientific Procedures) Act 1986 and EU Directive 2010/63EU for animal experiments. The study was approved by University of Ulster Research Ethics Committee.
For acute in vivo studies, overnight fasted, high fat fed mice (n = 8) received an intraperitoneal injection of glucose alone (18 mmol/kg body weight) or in combination with esculentin-2CHa or its analogues (75 nmol/kg body weight). This peptide dose was selected on the basis of a pilot study that examined acute effects of different doses of esculentin-2CHa on glucose tolerance in lean mice. Blood samples were collected as described previously before injection and at times indicated in the Figures for the measurement of plasma glucose and insulin concentrations.
Pancreatic tissues were homogenized in 20 mM Tris-HCl, 150 mM NaCl, 1 mM EDTA, 1 mM EGTA and 0.5% Triton X 100; pH 7.5 as previously described. Blood samples (approximately 150 μl), collected from the cut tip of the tail vein of unanesthetized mice at intervals indicated in the Figures were used for blood glucose measurements and determination of plasma insulin as previously described. Blood glucose was measured using a hand-held Ascencia Contour meter (Bayer Healthcare, UK). Plasma and pancreatic insulin were determined by radioimmunoassay. Plasma and pancreatic glucagon contents were determined by ELISA using commercially available kit (Millipore, MA, USA). Plasma creatinine, alanine transaminase (ALT), aspartic acid transaminase (AST) and alkaline phosphatase (ALP) were measured using commercially available kits (Randox Laboratories, UK) as indicators of renal and liver function. Plasma triglyceride and cholesterol concentrations were measured using an automated clinical chemistry analyser (I-lab 650, and reagents purchased from Instrumentation Laboratory (Warrington, UK). The assay kit for cholesterol was obtained from Randox Laboratories (Antrim, UK). Estimation of LDL cholesterol concentrations was achieved using the Friedewald equation as described previously.

Setting [6] is: peptide 75 nmol/kg ip with glucose 18 mmol/kg.

Turning to `[Cl-].[K+]` [KCl, reference compound], the “Increase of membrane potential” value in the data set on BRIN-BD11 cells [1] (30 mM) was determined as 5.2 fold.

In the case of `C[C@H](N)C(=O)O` [alanine, reference compound], the “Increase of insulin secretion, fold of basal” value in data set [2] (10 mM, 20 min, n = 8) stood at 7.3 fold. For the same molecule, the “Increase of intracellular Ca2+” value with BRIN-BD11 cells [3] (10 mM) worked out at 4.6 fold.

For the molecule “GFSSIFRGVAKFASKGLGKDKAKLGVDLVACKISKQC (disulfide 31-37 (inferred)) [[L21K]Esculentin-2CHa, substituted analogue of esculentin-2CHa with increased cationicity]”, the “BRIN-BD11 cells (Threshold concentration)” value (“BRIN-BD11 cells” for short) in data set [2] (20 min, n = 8) came to 10 pM. Besides, in data set [4], the “Stimulation of insulin release from islets, fold of basal” value (from here on “Stimulation … fold of basal”) turned out to be 2.6 fold and the “Mouse islets (Threshold concentration)” value was found to be 10 nM. In addition, the “LDH release (% of control)” value in the data set with BRIN-BD11 cells [5] is 100.6±2.0 % of control. Further, in the data set with BRIN-BD11 cells [1], the “Membrane potential (AUC, x 10^3 RFU)” value is given as 7.78±0.31 x 10^3 RFU. In addition, the “Intracellular Ca2+ (AUC, x 10^2 RFU)” value in the data set with BRIN-BD11 cells [3] was 6.14±0.41 x 10^2 RFU. In the data set with high fat fed mice, the “Plasma glucose (AUC)” value was 598.68±35.23^ΔΔ mmol/l.min and the “Plasma insulin (AUC)” value was 131.12±14.25^Δ ng/ml.min.

On to “GFSSIFRGVAKFASKGLGKDLAKKGVDLVACKISKQC (disulfide 31-37 (inferred)) [[L24K]Esculentin-2CHa, substituted analogue of esculentin-2CHa with increased cationicity]”, for which the “BRIN-BD11 cells” value in data set [2] (20 min, n = 8) came out at 10 pM. Besides, in data set [4], the “Stimulation … fold of basal” value is reported as 2.3 fold and the “Mouse islets (Threshold concentration)” value is recorded as 10 nM. Besides, the “LDH release (% of control)” value with BRIN-BD11 cells [5] is 101.3±3.1 % of control. Also, the “Membrane potential (AUC, x 10^3 RFU)” value with BRIN-BD11 cells [1] is recorded as 7.87±0.19 x 10^3 RFU. Moreover, the “Intracellular Ca2+ (AUC, x 10^2 RFU)” value with BRIN-BD11 cells [3] was 6.28±0.62 x 10^2 RFU. Moreover, in the data set on high fat fed mice, the “Plasma glucose (AUC)” value is 662.25±32.14^ΔΔ mmol/l.min and the “Plasma insulin (AUC)” value is recorded as 129.89±11.02^Δ ng/ml.min.

As for “GFSSIFRGVAKFASKGLGKDLAKLGVDLVACKISKQC (disulfide 31-37 (inferred)) [Esculentin-2CHa, frog skin host-defense peptide first isolated from Lithobates chiricahuensis; synthetic]”, the “Insulin-secretory response, fold of basal” value in data set [2] (3 μM peptide, 20 min) is on record as 10.3 fold. In data set [4], the “Stimulation … fold of basal” value is 2.7 fold and the “Mouse islets (Threshold concentration)” value is reported as 10 nM. In the data set on BRIN-BD11 cells [5], the “LDH release (% of control)” value is 102.7±1.1 % of control. In the data set on BRIN-BD11 cells [1], the “Membrane potential (AUC, x 10^3 RFU)” value is 8.01±0.28 x 10^3 RFU. Further, in the data set on BRIN-BD11 cells [3], the “Intracellular Ca2+ (AUC, x 10^2 RFU)” value is reported as 6.44±0.47 x 10^2 RFU. Besides, in the data set with high fat fed mice, the “Plasma glucose (AUC)” value stood at 463.99 ± 46.95 mmol·min/L and the “Plasma insulin (AUC)” value was found to be 165.05 ± 16.89 ng·min/mL. In addition, in the data set with high fat fed mice (setting [6]), the “Decrease of plasma glucose AUC versus glucose alone” value is 33% and the “Increase in integrated plasma insulin response versus glucose alone” value came out at 48%.

On to “GFSSIFRGVAKFASKGLGKDLAKLGVDLVAKKISKQC [[C31K]Esculentin-2CHa, substituted analogue of esculentin-2CHa with increased cationicity]”, for which, in data set [2] (3 μM), the “Stimulatory effect on insulin release at 3 μM compared with native peptide” value was “greater”. Besides, the “BRIN-BD11 cells” value in data set [2] (20 min, n = 8) worked out at 10 pM. Moreover, in data set [4], the “Stimulation … fold of basal” value came out at 3.3 fold and the “Mouse islets (Threshold concentration)” value was 0.1 nM. For the same molecule, in the data set on BRIN-BD11 cells [5], the “LDH release (% of control)” value was 100.2±2.8 % of control. The “Membrane potential (AUC, x 10^3 RFU)” value in the data set on BRIN-BD11 cells [1] was 7.92±0.14 x 10^3 RFU. Further, in the data set with BRIN-BD11 cells [3], the “Intracellular Ca2+ (AUC, x 10^2 RFU)” value is given as 6.32±0.72 x 10^2 RFU. Further, in the data set on high fat fed mice, the “Plasma glucose (AUC)” value came out at 410.72 ± 29.25 mmol·min/L and the “Plasma insulin (AUC)” value is 240.32±31.04 ^,ΔΔΔ ng/ml.min. In addition, in the data set on high fat fed mice (setting [6]), the “Decrease of plasma glucose AUC versus glucose alone” value was found to be 40% and the “Stimulation of insulin response relative to that with esculentin-2CHa” value is on record as 2.4 fold.

Take “GFSSIFRGVAKFASKGLGKDLAKLGVDLVASKISKQS [[C31S,C37S]Esculentin-2CHa, analogue with Cys31 and Cys37 replaced by serine]”: the “BRIN-BD11 cells” value in data set [2] (20 min, n = 8) turned out to be 10 pM. Further, in data set [4], the “Stimulation … fold of basal” value worked out at 2.6 fold and the “Mouse islets (Threshold concentration)” value turned out to be 1 nM. Further, in the data set on BRIN-BD11 cells [5], the “LDH release (% of control)” value is listed as 104.3±3.1 % of control. For the same molecule, the “Membrane potential (AUC, x 10^3 RFU)” value with BRIN-BD11 cells [1] is 7.96±0.24 x 10^3 RFU. Further, the “Intracellular Ca2+ (AUC, x 10^2 RFU)” value with BRIN-BD11 cells [3] is 6.55±0.36 x 10^2 RFU. In the data set on high fat fed mice, the “Plasma glucose (AUC)” value was 618.65±86.0^ΔΔ mmol/l.min and the “Plasma insulin (AUC)” value is 122.74±28.65^Δ ng/ml.min.

For “GFSSIFRGVAKFASKGLGKKLAKLGVKLVACKISKQC (disulfide 31-37 (inferred)) [[D20K, D27K]Esculentin-2CHa, analogue with Asp20 and Asp27 replaced by L-Lysine]”, in data set [2] (20 min, n = 8), the “BRIN-BD11 cells” value amounted to 100 pM. Further, in data set [4], the “Stimulation … fold of basal” value is recorded as 1.7 fold and the “Mouse islets (Threshold concentration)” value came out at 10 nM. In the data set on BRIN-BD11 cells [5], the “LDH release (% of control)” value is reported as 102.5±2.6 % of control. In addition, the “Membrane potential (AUC, x 10^3 RFU)” value with BRIN-BD11 cells [1] was 7.85±0.32 x 10^3 RFU. The “Intracellular Ca2+ (AUC, x 10^2 RFU)” value in the data set with BRIN-BD11 cells [3] is recorded as 6.10±0.46 x 10^2 RFU. In the data set with high fat fed mice, the “Plasma glucose (AUC)” value is listed as 667.78±60.23^ΔΔ mmol/l.min and the “Plasma insulin (AUC)” value was 122.96±16.76^Δ ng/ml.min.

For the molecule “GLP-1: incretin hormone used as positive control for islet insulin release [reference compound]”, the “Stimulation … fold of basal” value in data set [4] is 2.4 fold.
